Consider four compounds from US9642835B2, “Modulators of GTPase and use in relevant treatment” (STC.UNM, priority 2010, dated 2017).

Structures are written as SMILES.

The target in one experiment is Cdc42 ACT (Cdc42Q61L) (Homo sapiens, UniProt P60953, Q61L). Description: Bead-based flow cytometry dose response, BODIPY-FL-GTP binding. As to conditions: Table 6, R3 analogs; read-out: Cdc42 ACT EC50. The protocol:
(§1) Bead sets for multiplex assays were custom synthesized by Duke Scientific Corp (Fremont, Calif.), but may now be ordered from Thermo/Fisher. […] Negative controls, contained the bead mixture with fluorescent GTP, 0.5 mM unlabeled GTP as a competitor, and 1% DMSO. […] The resulting time-dependent data (one file per plate) were analyzed using IDLQuery software to determine the compound activity in each well. Gating based on forward scatter (FS) and side scatter (SS) parameters was used to identify singlet bead populations. Gating based on FL8 emission distinguishes the beads coated with different proteins, and the median fluorescence per bead population was calculated. […] Baselines were set to 100% based on measurements from the 1% DMSO containing positive controls as further described in PubChem. {PubChem #72}
(§2) Briefly, compounds were serially diluted 1:3 a total of eight times from a starting concentration of 10 mM giving a 9-point dilution series in DMSO. The final concentrations of inhibitors in the assay ranged from 10 nM to 100 μM. Dose-response analyses were examined in the presence of NP-HPS buffer containing: a) 1 mM EDTA; or b) 1 mM MgCl2. […] For assays with EDTA we used one multiplex (Rab7 wt, Rab2 wt, H-Ras wt, H-RasG12V, Cdc42 wt, and Cdc42Q61L) and 3 single-plexes (for Rac1 wt, Rac1 Q61L and GST-GFP).
(§3) GTPase activators were identified on the basis of an increase in fluorescent GTP-binding.
(§4) In experiments including magnesium, six GST-GTPases were assayed simultaneously in a single multiplex (Rac1 wt, Rac1Q61L, RhoA wt, RhoAL63, Cdc42 wt and Cdc42Q61L) and 1 nM BODIPY-FL-GTP binding was measured in the presence or absence of the serial drug dilution series. Each dose response series was run in duplicate.
A general note: A flow cytometer gives signals particle by particle.

For another experiment, the target named is T1, Cdc42 WT (Homo sapiens, UniProt P60953).
T1 construct: purchased Cytoskeleton
The experiment is described as above. The conditions noted are these: Table 6, R3 analogs; for EC50: read-out: Cdc42 WT EC50; for Emax: read-out: Cdc42 WT Efficacy. As for the experimental part:
as §1, §2, §3, §4

Experiment [1] concerns the target T2, Cdc42 GTPase in Swiss 3T3 cells (Mus musculus, UniProt P60766).
T2 construct: endogenous in cells; host or cells: Swiss 3T3 cells
Description: GLISA. The format is cell-based. As to conditions: approximately 10 μM. As for the experimental part:
Swiss 3T3 cells were continuously passaged at subconfluence and used to monitor the capacity of compounds to block stimulus-mediated activation of Cdc42, Rac1 or RhoA in vivo. Commercial GLISA kits customized to capture activated Cdc42, Rac1 or Rho from cell lysates were used per manufacturer's instructions (Cytoskeleton, Inc.). Cells were serum starved by sequentially removing serum over a three day period and treated with DMSO or 10 μM compound in DMSO for 20-30 min. Subsequently samples were treated with EGF (10 ng/ml for Rac1 and 100 ng/ml for Cdc42) for 2 min to activate Rac1 and Cdc42 or 5 U/ml calpeptin for 10 min to activate RhoA. DMSO treated cells were left unstimulated to determine baseline GTPase activation or stimulated without drug treatment to determine maximal GTPase activation. Cell lysates were snap frozen, active Cdc42 and Rac1 were quantified based on a PAK binding assay, active RhoA was quantified based on Rho GTP-binding protein interaction. All assays were performed in 96-well microtiter plates, Purified GTP-bound Cdc42, Rac1, or RhoA served as a standards to calculate ng active GTPase in the lysates.

For experiment [2], the system named is Cdc42, Rab2, Rab7, activated Rac1Q61L, Rac1, and H-Ras. The experiment is described as follows: Multiplexed primary screen, fluorescent GTP binding. The conditions noted are these: 10 μM compound. As for the experimental part: Multiplex screening was performed by measuring GTP-binding activities of six GTPases (Cdc42, Rab2, Rab7, activated Rac1Q61L, Rac1, and H-Ras) simultaneously using special glutathione (GSH) bead sets having varied fluorescence intensities at a fixed wavelength^38. Individual GST-GTPase chimeras were tested against approximately 200,000 small molecules from the Molecular Libraries Small Molecule Repository (MLSMR). Results of fluorescent GTP-binding from the entire primary screen are summarized in the open access Pubchem database as required for projects conducted under the Roadmap Initiative (AID 757-761, 764). […] In total 1877 compounds/194,635 were identified as activators or inhibitors in the primary screen. On the order of 100-500 compounds were found active per GTPase target, enabling an unprecedented, comprehensive evaluation of small molecules active against various Ras-related GTPase family members. Here we report one compound active specifically on Cdc42 and structure activity relationships determined through chemical synthesis.
Multiplex analysis of small GTPases, were performed as we have described previously {Surviladze, 2009}. […] Flow cytometric light scatter and fluorescence emission at 530+/−20 nm (FL1) and 665+/−10 nm (FL8) were collected on a Cyan ADP flow cytometer (Beckman Coulter, Fullerton, Calif.). The resulting time-dependent data (one file per plate) were analyzed using IDLQuery software to determine the compound activity in each well. […] Gating based on FL8 emission distinguishes the beads coated with different proteins, and the median fluorescence per bead population was calculated. […]
For detection of GTP binding to small G-proteins we used bead-based multiplex flow cytometry assay {Surviladze, 2009}. […] Six individual GST-GTPases representative of Rho, Ras and Rab branches of the Ras-related GTPase family (Cdc42 wt, Rac1 wt, Rac1Q61L, Rab2 wt, Rab7 wt, and H-Ras wt) were first bound to GSH-beads of a particular fluorescence intensity. […]

The next experiment concerns the target T3, wild-type Cdc42 (Homo sapiens, UniProt P60953).
T3 construct: purchased Cytoskeleton
The experiment is described as follows: Equilibrium binding assay of BODIPY-FL-GTP. The conditions noted are these: 1.5 nM substrate, 1 mM MgCl2; read-out: IC50, inhibition of fluorescent GTP binding to Cdc42 wt. As for the experimental part:
Changes in GTP binding affinity (Kd) and Bmax in the presence of a given compound were measured in multiplex (Cdc42, Cdc42Q61L, Rab2, Rab7, H-Ras and H-RasG12V) and single-plex formats (Rac1, Rac1Q61L and GST-GFP). GTPases and the GST-GFP control were individually bound to glutathione beads overnight at 4° C., washed with HPSE buffer, then resuspended together or assayed individually in the same buffer containing DTT and BSA. Bound GTPases were analyzed by mixing 5 μl protein-bound beads with 2.5-100 nM BODIPY-GTP in a total volume of 10 μl and incubating with rotation at 4° C. for 90 min. DMSO controls and samples treated with 10 μM of each test compound were run in parallel. Bound fluorescent nucleotide was measured using a Cyan ADP flow cytometer. Data were converted to ASCII format using IDLeQuery, exported and analyzed using Prism (GraphPad Software, Inc., San Diego, Calif.) non-linear, one-site binding.
Wild-type GST-Cdc42 (4 μM) was bound to GSH-beads overnight at 4° C. Cdc42 on GSH-beads was depleted of nucleotide by incubating with 10 mM EDTA containing buffer for 20 min at 30° C., washing twice with NP-HPS buffer, then re-suspended in the same buffer containing 1 mM EDTA/or 1 mM MgCl2, 1 mM DTT and 0.1% BSA. […] Samples incubated at 4° C. for 45 min and binding of fluorescent nucleotide to enzyme measured using an Accuri flow cytometer. […]

In another experiment the target is Cdc42 (Homo sapiens, UniProt P60953). Description: Fluorescent-GTP binding to Cdc42 (p38 inhibitor control).
Chain of Cdc42 (P60953 whole entry, species assumed): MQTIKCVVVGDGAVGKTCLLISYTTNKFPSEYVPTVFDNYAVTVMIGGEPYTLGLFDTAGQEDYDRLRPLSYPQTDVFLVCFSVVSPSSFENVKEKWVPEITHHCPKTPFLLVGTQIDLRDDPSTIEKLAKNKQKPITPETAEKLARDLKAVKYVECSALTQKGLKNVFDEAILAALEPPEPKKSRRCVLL

T1 sequence (P60953 whole entry): as the sequence (P60953 whole entry, species assumed) above
Chain of Cdc42 ACT (Cdc42Q61L) (P60953 whole entry Q61L): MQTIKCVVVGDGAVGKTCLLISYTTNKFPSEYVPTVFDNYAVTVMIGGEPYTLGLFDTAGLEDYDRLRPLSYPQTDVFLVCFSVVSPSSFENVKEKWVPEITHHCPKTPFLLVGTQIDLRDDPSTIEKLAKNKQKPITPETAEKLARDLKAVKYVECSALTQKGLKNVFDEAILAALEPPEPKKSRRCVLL
T2 sequence (P60766 whole entry): as the sequence (P60953 whole entry, species assumed) above
T3 sequence (P60953 whole entry): as the sequence (P60953 whole entry, species assumed) above

In general, EC50 refers to the concentration needed to bring the measured effect to its halfway point. For the compound `Cc1ccc(C2CC(c3ccccc3)=NN2c2ccc(S(N)(=O)=O)cc2)cc1` (centres unmarked) [CID 13927310, 4-[3-(4-methylphenyl)-5-phenyl-3,4-dihydropyrazol-2-yl]benzene sulfonamide], the EC50 at Cdc42 ACT (Cdc42Q61L) turned out to be 5 µM. Besides, at Cdc42 WT, the EC50 was determined as 5 µM and the Emax turned out to be 66%. Besides, the “Inhibition of Cdc42 GTPase in GLISA” value in experiment [1] is “significant response”.

As to `Cc1cccc(C2CC(c3ccccc3)=NN2c2ccc(S(N)(=O)=O)cc2)c1` (centres unmarked) [CID 44143700, 4-[3-(3-methylphenyl)-5-phenyl-3,4-dihydropyrazol-2-yl]benzene sulfonamide], the EC50 on Cdc42 ACT (Cdc42Q61L) came to 5.3 µM. For the same compound, at Cdc42 WT, the EC50 was determined as 5 µM and the Emax turned out to be 55%. Besides, the “Inhibition of Cdc42 GTPase in GLISA” value in experiment [1] was “significant response”.

Usually IC50 stands for the concentration that gives 50% inhibition. For the compound `COc1ccc(C2CC(c3ccccc3)=NN2c2ccc(S(N)(=O)=O)cc2)cc1OC` (centres unmarked) [MLS000862339], the “Outcome of primary screening” value in experiment [2] is reported as “specific inhibitors”. Also, the IC50 on wild-type Cdc42 stood at 0.4 µM.

Turning to `Oc1ccc(-c2nc(-c3ccncc3)c(-c3ccc(F)cc3)[nH]2)cc1` [SB 202190], the “Fluorescent-GTP binding to Cdc42” value at Cdc42 is given as “did not inhibit”.
